According to patent KR20130112248A, “피라졸로피리미딘 유도체 화합물, 이를 포함하는 산화질소 생성 억제용 조성물 및 뇌신경 질환 예방 및 치료용 약학적 조성물” (한국과학기술연구원, priority 2012, dated 2013):

Tested on: NO production in BV-2 cells [NO 생성; BV-2 세포]
Experiment: Nitric oxide (NO) quantification (nitrite, Griess reaction) in LPS-activated BV-2 cells
Format: cell-based
Settings: LPS 0.2 ㎍/mL, 24 h co-treatment; for NO (% of LPS) / activity at 20 µM: 20 μM; for NO (% of LPS) / activity at 20 µM / activity at 30 µM: nitrite by Griess at 540 nm

Row | Compound | activity at 20 µM (Mus musculus, BV-2, 24 h) [%] | further results
1 | 1-(2-메톡시펜에틸)-N-(4-메톡시벤질)-6-(메틸설포닐)-1H-피라졸로[3,4-d]피리미딘-4-아민 [화합물 23zb] | – | NO (% of LPS): 49±2.9 % of LPS
2 | 1-(N-t-Boc-아미노에틸)-4-(1-하이드록시에틸)아미노-6-(메틸티오)피라졸로[3,4-d]피리미딘 [화합물 14b] | – | NO (% of LPS): 102±4 % of LPS
3 | 1-t-뷰틸-4-(1-하이드록시에틸)아미노-6-(메틸티오)피라졸로[3,4-d]피리미딘 [화합물 17d] | – | NO (% of LPS): 93±2 % of LPS
4 | 2-(4-(1-페닐에틸아미노)-6-(메틸티오)-1H-피라졸로[3,4-d]피리미딘-1-일)에틸카바메이트 [화합물 14g] | – | NO (% of LPS): 33.5±1.3 % of LPS
5 | 2-(4-(4-플루오로벤질아미노)-6-(메틸티오)-1H-피라졸로[3,4-d]피리미딘-1-일)에틸카바메이트 [화합물 14f] | – | NO (% of LPS): 38.3±1.3 % of LPS
6 | CC(Nc1nc(S(C)(=O)=O)nc2c1cnn2Cc1ccccc1)c1ccccc1 (single isomer, unassigned) [화합물 23q, 1-벤질-6-(메틸설포닐)-N-(1-페닐에틸)-1H-피라졸로[3,4-d]피리미딘-4-아민] | – | NO (% of LPS) (1440 min): 122±2.8 % of LPS
7 | CC(Nc1nc(S(C)(=O)=O)nc2c1cnn2Cc1ccccc1)c1ccccc1 (single isomer, unassigned) [화합물 23r, 1-벤질-6-(메틸설포닐)-N-(1-페닐에틸)-1H-피라졸로[3,4-d]피리미딘-4-아민] | – | NO (% of LPS) (1440 min): 87±7.1 % of LPS
8 | CSc1nc(Cl)c2cnn(C)c2n1 [5a, 1-메틸-4-클롤로-6-(메틸티오)피라졸로[3,4-d]피리미딘] | 51 ± 2 | –
9 | C=CCn1ncc2c(Cl)nc(SC)nc21 [5b, 1-알릴-4-클로로-6-(메틸티오)피라졸로[3,4-d]피리미딘] | 63 ± 8 | –
10 | CSc1nc(Cl)c2cnn(CCOC3CCCCO3)c2n1 (stereo not shown) [5c, 1-[2-(테트라하이드로피란-2-일옥시)에틸]-4-클로로-6-(메틸티오)피라졸로[3,4-d]피리미딘] | 49 ± 9 | –
11 | CSc1nc(Cl)c2cnn(CCNC(=O)OC(C)(C)C)c2n1 [5d, 1-[N-t-Boc-(2-아미노에틸)]-4-클로로-6-(m메틸티오)피라졸로[3,4-d]피리미딘] | 48 ± 4 | –
12 | CSc1nc(Cl)c2cnn(-c3ccccc3)c2n1 [5e, 1-페닐-4-클로로-6-(메틸티오)피라졸로[3,4-d]피리미딘] | 50 ± 7 | –
13 | CSc1nc(Cl)c2cnn(Cc3ccccc3)c2n1 [5f, 1-벤질-4-클로로-6-(메틸티오)피라졸로[3,4-d]피리미딘] | 69 ± 3 | –
14 | CSc1nc(Cl)c2cnn(C(C)(C)C)c2n1 [5g, 1-t-뷰틸-4-클로로-6-(메틸티오)피라졸로[3,4-d]피리미딘] | 15 ± 18 | –
15 | CSc1nc(Cl)c2cnn(-c3ccc(F)cc3)c2n1 [5h, 1-(4-플루오로페닐)-4-클로로-6-(메틸티오)피라졸로[3,4-d]피리미딘] | 9 ± 42.2 | activity at 30 µM (Mus musculus, BV-2, 24 h): 59.6%
16 | CSc1nc(Cl)c2cnn(-c3ccc(C)cc3)c2n1 [5i, 1-(4-메틸페닐)-4-클로로-6-(메틸티오)피라졸로[3,4-d]피리미딘] | 54 ± 2.7 | –
17 | COc1cccc(CCn2ncc3c(Cl)nc(SC)nc32)c1 [5j, 1-(3-메톡시펜에틸)-4-클로로-6-(메틸티오)-1H-피라졸로[3,4-d]피리미딘] | 5 ± 49.7 | –
18 | COc1ccccc1CCn1ncc2c(Cl)nc(SC)nc21 [5k, 1-(2-메톡시펜에틸)-4-클로로-6-(메틸티오)-1H-피라졸로[3,4-d]피리미딘] | 5 ± 62.9 | –
19 | CSc1nc(NCc2ccccc2)c2cn[nH]c2n1 [6a, 4-벤질아미노-6-(메틸티오)피라졸로[3,4-d]피리미딘] | – | activity at 50 µM (Mus musculus, BV-2, 24 h, 50 μM (printed in cell of the 30 μM column)): 35 ± 4%
20 | C=CCNc1nc(SC)nc2[nH]ncc12 [6b, 4-알릴아미노-6-(메틸티오)피라졸로[3,4-d]피리미딘] | 100 ± 4 | –

Row | Compound | activity at 20 µM (Mus musculus, BV-2, 24 h) [%] | further results
21 | CSc1nc(NCCc2ccccc2)c2cn[nH]c2n1 [6c, 4-펜에틸아미노-6-(메틸티오)피라졸로[3,4-d]피리미딘] | 91 ± 4 | –
22 | CSc1nc(NCc2ccc(F)cc2)c2cn[nH]c2n1 [6d, 4-(4-플루오로벤질)아미노-6-(메틸티오)피라졸로[3,4-d]피리미딘] | 84 ± 8 | –
23 | CCCCNc1nc(SC)nc2[nH]ncc12 [6e, 4-n-뷰틸아미노-6-(메틸티오)피라졸로[3,4-d]피리미딘] | 83 ± 9 | –
24 | CSc1nc(NCCO)c2cn[nH]c2n1 [6f, 4-(1-하이드록시에틸)아미노-6-(메틸티오)피라졸로[3,4-d]피리미딘] | 87 ± 6 | –
25 | CSc1nc(NCCN2CCCCC2)c2cn[nH]c2n1 [6g, 4-(2-피페리딘-1-일)에틸아미노-6-(메틸티오)피라졸로[3,4-d]피리미딘] | 102 ± 6 | –
26 | CSc1nc(NCc2ccccn2)c2cn[nH]c2n1 [6h, 4-(피리딘-2-일)메틸아미노-6-(메틸티오)피라졸로[3,4-d]피리미딘] | – | NO (% of LPS) (1440 min): 97±5 % of LPS
27 | COc1cccc(CNc2nc(SC)nc3[nH]ncc23)c1 [6i, 4-(3-메톡시벤질)아미노-6-(메틸티오)피라졸로[3,4-d]피리미딘] | 48 ± 10 | –
28 | CSc1nc(NC(C)C2CCCCC2)c2cn[nH]c2n1 (stereo not shown) [6j, 4-(1-사이클로헥실에틸)아미노-6-(메틸티오)피라졸로[3,4-d]피리미딘] | 66 ± 10 | –
29 | CSc1nc(N[C@H](C)c2ccccc2)c2cn[nH]c2n1 [6k, (R)-4-(1-페닐에틸)아미노-6-(메틸티오)피라졸로[3,4-d]피리미딘] | 16 ± 17 | –
30 | CSc1nc(NC(C)(C)CO)c2cn[nH]c2n1 [6l, 4-(2-하이드록시-1-다이메틸에틸)아미노-6-(메틸티오)피라졸로[3,4-d]피리미딘] | 125 ± 14 | –
31 | CSc1nc(NCCCn2ccnc2)c2cn[nH]c2n1 [6m, 4-(3-이미다졸-1-일)프로판아미노-6-(메틸티오)피라졸로[3,4-d]피리미딘] | 97 ± 6 | –
32 | CSc1nc(N2CCN(C)CC2)c2cn[nH]c2n1 [6n, 4-(4-메틸피페라지노)-6-(메틸티오)피라졸로[3,4-d]피리미딘] | – | activity at 20 µM (Mus musculus): 114 ± 9%
33 | CSc1nc(N(CCO)CCO)c2cn[nH]c2n1 [6o, 4-(디-2-하이드로에틸)아미노-6-(메틸티오)피라졸로[3,4-d]피리미딘] | 106 ± 10 | –
34 | CSc1nc(NCc2ccc(Cl)cc2)c2cn[nH]c2n1 [6p, 4-(4-클로로벤질)아미노-6-(메틸티오)피라졸로[3,4-d]피리미딘] | 50 ± 23 | –
35 | CSc1nc(NCc2ccc(C)cc2)c2cn[nH]c2n1 [6q, 4-(4-메틸벤질)아미노-6-(메틸티오)피라졸로[3,4-d]피리미딘] | 90 ± 15 | –
36 | CSc1nc(NCc2ccccc2C)c2cn[nH]c2n1 [6r, 4-(2-메틸벤질)아미노-6-(메틸티오)피라졸로[3,4-d]피리미딘] | 64 ± 3 | –
37 | CSc1nc(N2CCCCC2)c2cn[nH]c2n1 [6s, 4-피페리디노-6-(메틸티오)피라졸로[3,4-d]피리미딘] | 85 ± 15 | –
38 | CSc1nc(NC2CCCCC2)c2cn[nH]c2n1 [6t, 4-사이클로헥실아미노-6-(메틸티오)피라졸로[3,4-d]피리미딘] | 106 ± 5 | –
39 | CCN(CC)c1nc(SC)nc2[nH]ncc12 [6u, 4-다이에틸아미노-6-(메틸티오)피라졸로[3,4-d]피리미딘] | 87 ± 8 | –
40 | COc1ccccc1CNc1nc(SC)nc2[nH]ncc12 [6v, 4-(2-메톡시벤질)아미노-6-(메틸티오)피라졸로[3,4-d]피리미딘] | 36 ± 7 | –

Row | Compound | activity at 20 µM (Mus musculus, BV-2, 24 h) [%] | further results
41 | CSc1nc(NCc2ccccc2Cl)c2cn[nH]c2n1 [6w, N-(2-클로로벤질)-6-(메틸티오)-1H-피라졸로[3,4-d]피리미딘-4-아민] | 46 ± 2.9 | –
42 | COc1ccc(CNc2nc(SC)nc3[nH]ncc23)cc1 [6x, N-(4-메톡시벤질)-6-(메틸티오)-1H-피라졸로[3,4-d]피리미딘-4-아민] | 115 ± 3.2 | –
43 | CSc1nc(NCc2ccccn2)c2cn[nH]c2n1 [6y, 6-(메틸티오)-N-((피리딘-2-일)메틸)-1H-피라졸로[3,4-d]피리미딘-4-아민] | 90 ± 2.9 | –
44 | CSc1ncc2cn[nH]c2n1 [7a, 6-(메틸티오)피라졸로[3,4-d]피리미딘] | – | activity at 30 µM (Mus musculus, BV-2, 24 h): 79 ± 1%
45 | CSc1ncc2cnn(-c3ccccc3)c2n1 [7b, 1-페닐-6-(메틸티오)피라졸로[3,4-d]피리미딘] | 78 ± 4 | –
46 | CSc1nc2[nH]ncc2c(=O)[nH]1 [8a, 6-(메틸티오)피라졸로[3,4-d]피리미딘-4-온] | – | activity at 30 µM (Mus musculus, BV-2, 24 h): 75 ± 0.9%
47 | CSc1nc2c(cnn2-c2ccccc2)c(=O)[nH]1 [8b, 1-페닐-6-(메틸티오)피라졸로[3,4-d]피리미딘-4-온] | 75 ± 3 | –
48 | CSc1nc2[nH]ncc2c(=S)[nH]1 [9a, 6-(메틸티오)피라졸로[3,4-d]피리미딘-4-티온] | – | activity at 30 µM (Mus musculus, BV-2, 24 h): 98 ± 5.5%
49 | CSc1nc2c(cnn2-c2ccccc2)c(=S)[nH]1 [9b, 1-페닐-6-(메틸티오)피라졸로[3,4-d]피리미딘-4-티온] | 94 ± 7 | –
50 | CSc1nc2c(cnn2Cc2ccccc2)c(=S)[nH]1 [9c, 1-벤질-6-(메틸티오)피라졸로[3,4-d]피리미딘-4-티온] | 79 ± 5 | –
51 | CSc1nc2c(cnn2C(C)(C)C)c(=S)[nH]1 [9d, 1-t-뷰틸-6-(메틸티오)피라졸로[3,4-d]피리미딘-4-티온] | 108 ± 5 | –
52 | COc1nc(SC)nc2[nH]ncc12 [10a, 4-메톡시-6-(메틸티오)피라졸로[3,4-d]피리미딘] | – | activity at 30 µM (Mus musculus, BV-2, 24 h): 91 ± 2.4%
53 | CCOc1nc(SC)nc2[nH]ncc12 [10b, 4-에톡시-6-(메틸티오)피라졸로[3,4-d]피리미딘] | – | activity at 30 µM (Mus musculus, BV-2, 24 h): 93 ± 9%
54 | CSc1nc(NCc2ccccc2)c2c(I)n[nH]c2n1 [11a, 3-아이오도-4-벤질아미노-6-(메틸티오)피라졸로[3,4-d]피리미딘] | – | activity at 30 µM (Mus musculus, BV-2, 24 h): 27 ± 11%
55 | CSc1nc(NCCO)c2c(I)n[nH]c2n1 [11b, 3-아이오도-4-(1-하이드록시에틸)아미노-6-(메틸티오)피라졸로[3,4-d]피리미딘] | – | activity at 30 µM (Mus musculus, BV-2, 24 h): 82 ± 7%
56 | COc1nc(SC)nc2[nH]nc(I)c12 [11d, 3-아이오도-4-메톡시-6-(메틸티오)피라졸로[3,4-d]피리미딘] | – | activity at 30 µM (Mus musculus, BV-2, 24 h): 91 ± 3%
57 | CSc1nc(NCc2ccccc2)c2cnn(C)c2n1 [12a, 1-메틸-4-벤질아미노-6-(메틸티오)피라졸로[3,4-d]피리미딘] | 77 ± 2 | –
58 | CSc1nc(NC(C)(C)CO)c2cnn(C)c2n1 [12b, 1-메틸-4-[(1-하이드록시-2,2-다이메틸)에틸]아미노-6-(메틸티오)피라졸로[3,4-d]피리미딘] | 90 ± 7 | –
59 | CSc1nc(N(CCO)CCO)c2cnn(C)c2n1 [12c, 1-메틸-4-비스(1-하이드록시에틸)아미노-6-(메틸티오)피라졸로[3,4-d]피리미딘] | 115 ± 6 | –
60 | CSc1nc(NCCCn2ccnc2)c2cnn(C)c2n1 [12d, 1-메틸-4-[3-(이미다졸-1-일)]프로필아미노-6-(메틸티오)피라졸로[3,4-d]피리미딘] | 75 ± 1 | –
